Values of other authors, collected in US9192588B2, “Method for producing a zeaxanthin-enriched chicken egg” (JX NIPPON OIL & ENERGY CORPORATION, priority 2011, dated 2015).
Where two headings read alike, the source gives them in different places.

Details: human
[1] = twice the initial dose for further 6 months

For `CC1=C(/C=C/C(C)=C/C=C/C(C)=C/C=C/C=C(C)/C=C/C=C(C)/C=C/C2=C(C)C[C@@H](O)CC2(C)C)C(C)(C)C[C@H](O)C1` [chemically synthesized zeaxanthin, zeaxanthin], the “blood zeaxanthin concentration after intake” value (12.6 mg every day for 6 months) is listed as 0.85 µM, the “proportion of the increase to the intake” value (12.6 mg every day for 6 months) is listed as 0.06 μM/(mg/Day) and the “initial blood zeaxanthin concentration” value (before intake) is listed as 0.04 µM. For the same compound, the “blood zeaxanthin concentration after intake” value [1] was 1.09 µM and the “proportion of the increase to the intake” value [1] was 0.01 μM/(mg/Day).
